# Experimental data published in patent US20070082945A1, “Discodermolide compositions” (priority 2003, published 2007).
# Where two headings read alike, the source gives them in different places.
# Legend:
# [1] = Stability of 16 mg/mL infusion concentrate in propylene glycol (HPLC, UV detector), Example 13; type: physicochemical; settings: for Assay / Total Impurities: 16 mg/mL infusion concentrate in PG
# Description: The stability of an infusion concentrate of 16 mg/mL in propylene glycol at different temperatures is determined. Table 3 describes the amount of degradation product formed over a period of up to 12 weeks. The stability is analyzed by determining formation of degradation products in each of the infusion concentrates as a function of time and temperature. Each sample is analyzed by HPLC with a UV detector.
# purified tubulin = settings: among the compounds known to induce polymerization; cited from earlier work
# [2] = Solubility and stability in aqueous media; type: physicochemical
# [3] = Solubility and stability in 40% PG/10% ethanol/50% normal saline with hydrotropic agents; type: physicochemical; settings: aqueous with cosolvent or surfactant or cyclodextrin, read-out: Discodermolide Solubility
# From the text: The solubility and stability of discodermolide in 40% propylene glycol/10% ethanol 50% normal saline diluted with hydrotropic agents is shown in Table 7.
# [4] = Storage stability of infusion concentrate vials and infusion solution; type: physicochemical
# Description: An infusion concentrate comprising 2 mg of discodermolide is dissolved in 98-100% propylene glycol (PG) (1.0 mL) and charged to 6 mL vials. The vials are used for storage and shipment. The vials are stable for a period of at least 2 years at a temperature of 2-8° C. The vehicle is prepared in a separate 2 mL single dose vial. Each mL of solution contains 7.3 mg of sodium chloride USP, and 163 mg of ethanol (EtOH) in water for injection(saline) (16.3% ethanol in 0.9% sodium chloride solution, 2 mL fill). The storage condition is 25° C. for the vehicle. Prior to i.v. administration, 1.6 mL of the vehicle is withdrawn with a sterile disposable syringe and injected into the vial containing the discodermolide. The solution is gently shaken until a clear homogeneous solution for infusion is obtained containing 0.77 mg/mL discodermolide in 40% propylene glycol, 10% ethanol and 50% normal saline. The ratio of discodermolide concentrate to the diluent vehicle in the diluted solution is 1:1.6 v/v. The i.v. solution thus formed is stable for a period of 8 hours at room temperature.
# [5] = Stability of solution diluted 1:1.6 with 16.3% w/v ethanol in 0.9% sodium chloride, ambient conditions; type: physicochemical; settings: 0.77 mg/mL solution for infusion
# Description: In this example, stability of discodermolide in solution diluted 1:1.6 with 16.3% w/v, ethanol in 0.9% sodium chloride solution (0.77 mg/mL) under ambient conditions is measured. Table 5 describes the amount of degradation product formed over a period of up to 24 hours. The stability is analyzed by determining formation of degradation products in each of the infusion solution as a function of time and temperature. Each sample is analyzed y HPLC with a UV detector. The solution for infusion was prepared by diluting a 2.0 mg/ml discodermolide concentrate with 16.3% ethanol in 0.9% sodium chloride solution in a 1:1.6 ration.
# [6] = Stability of infusion concentrates diluted 1:5 with 20/80 propylene glycol/0.9% sodium chloride, ambient conditions; type: physicochemical
# Description: In this example, stability of discodermolide infusion concentrates diluted 1:5 with 20/80 propylene glycol/0.9% sodium chloride solution under ambient conditions is measured. Table 4 describes the amount of degradation product formed over a period of up to 24 hours. The stability is analyzed by determining formation of degradation products in each of the infusion solutions as a function of time and temperature. Each sample is analyzed by HPLC with a UV detector. The solution for infusion was prepared by diluting discodermolide concentrates, 0.6 mg/mL, 2.0 mg/mL and 3.0 mg/mL, with 20/80 propylene glycol/0.9% sodium chloride solution in a 1:5 ratio. The discodermolide concentrate solutions of 0.6 mg/mL, 2.0 mg/mL and 3.0 mg/mL yielded discodermolide solutions for infusions 0.12 mg/mL, 0.4 mg/mL and 0.6 mg/mL, respectively.
# microtubules = settings: compared with paclitaxel; cited from earlier work
# [7] = normal saline (0.9% sodium chloride)
# [8] = 0.12 mg/mL solution for infusion, 0 hours
# [9] = 0.12 mg/mL solution for infusion, 2 hours
# [10] = 0.12 mg/mL solution for infusion, 4 hours
# [11] = 0.12 mg/mL solution for infusion, 8 hours
# [12] = 0.12 mg/mL solution for infusion, 24 hours
# [13] = 0.4 mg/mL solution for infusion, 0 hours
# [14] = 0.4 mg/mL solution for infusion, 2 hours
# [15] = 0.4 mg/mL solution for infusion, 4 hours
# [16] = 0.4 mg/mL solution for infusion, 8 hours
# [17] = 0.4 mg/mL solution for infusion, 24 hours
# [18] = 0.6 mg/mL solution for infusion, 0 hours
# [19] = 0.6 mg/mL solution for infusion, 2 hours
# [20] = 0.6 mg/mL solution for infusion, 4 hours
# [21] = 0.6 mg/mL solution for infusion, 8 hours
# [22] = 0.6 mg/mL solution for infusion, 24 hours
structure (smiles),measurement,setting,value
"C=C/C=C\C(C)[C@H](OC(N)=O)[C@@H](C)[C@H](O)[C@@H](C)C/C(C)=C\C(C)C(O)[C@@H](C)/C=C\[C@@H](O)C[C@@H]1OC(=O)[C@H](C)C(O)C1C (single isomer, unassigned; (+)) [discodermolide, (+)-Discodermolide]",Assay,[1]; 0-time,103.9 % label claim
same,Total Impurities,[1]; 0-time,0.59%
same,Assay,"[1]; 5° C., 4 weeks",102.2 % label claim
same,Total Impurities,"[1]; 5° C., 4 weeks",0.60%
same,Assay,"[1]; 5° C., 8 weeks",101.4 % label claim
same,Total Impurities,"[1]; 5° C., 8 weeks",0.48%
same,Assay,"[1]; 5° C., 12 weeks",100.7 % label claim
same,Total Impurities,"[1]; 5° C., 12 weeks",0.49%
same,Assay,"[1]; 25° C./60% RH, 3 weeks",100.7 % label claim
same,Total Impurities,"[1]; 25° C./60% RH, 3 weeks",0.56%
same,Assay,"[1]; 25° C./60% RH, 4 weeks",103.6 % label claim
same,Total Impurities,"[1]; 25° C./60% RH, 4 weeks",0.66%
same,Assay,"[1]; 25° C./60% RH, 8 weeks",100.5 % label claim
same,Total Impurities,"[1]; 25° C./60% RH, 8 weeks",0.68%
same,Assay,"[1]; 25° C./60% RH, 12 weeks",100.1 % label claim
same,Total Impurities,"[1]; 25° C./60% RH, 12 weeks",0.65%
same,Assay,"[1]; 50° C./75% RH, 3 weeks",99.4 % label claim
same,Total Impurities,"[1]; 50° C./75% RH, 3 weeks",0.65%
same,Assay,"[1]; 50° C./75% RH, 4 weeks",101.6 % label claim
same,Total Impurities,"[1]; 50° C./75% RH, 4 weeks",0.65%
same,Assay,"[1]; 50° C./75% RH, 8 weeks",99.5 % label claim
same,Total Impurities,"[1]; 50° C./75% RH, 8 weeks",0.65%
same,Assay,"[1]; 50° C./75% RH, 12 weeks",99.2 % label claim
same,Total Impurities,"[1]; 50° C./75% RH, 12 weeks",0.62%
same,Degradation profile and long term stability,[1]; 16 mg/mL infusion concentrate in propylene glycol,comparable to 2.0 mg/mL
same,Potency to induce polymerization of purified tubulin,purified tubulin,the most potent
same,Solubility in aqueous solvents and aqueous-organic mixtures,[2],poor solubility
same,Stability in aqueous solvents and aqueous-organic mixtures,[2],poor stability
same,Degradation on dilution of infusion concentrate,[2]; [7],degrades to the hydrolysis product
same,Precipitation on dilution of infusion concentrate,[2]; [7],precipitation of the discodermolide is observed
same,Solubility in water,[2]; water,practically insoluble
same,solubility,[3]; 40% PG/10% EtOH/4% benzoic acid in normal saline,1900 µg/mL
same,solubility,[3]; 40% PG/10% EtOH/4% benzoic acid/1% benzyl alcohol in normal saline,2200 µg/mL
same,solubility,"[3]; propylene glycol/ethanol/normal saline mixture, 40% PG/10% EtOH in normal saline",910 µg/mL
same,Period of stability of i.v. solution,"[4]; 0.77 mg/mL in 40% propylene glycol, 10% ethanol, 50% normal saline, room temperature",8 h
same,Period of stability of infusion concentrate vials,"[4]; 2 mg discodermolide in 1.0 mL 98-100% propylene glycol, 2-8° C.",at least 2 years
same,Total Impurities,[5]; 0 hours,0.20 % area
same,Total Impurities,[5]; 2 hours,0.23 % area
same,Total Impurities,[5]; 4 hours,0.34 % area
same,Total Impurities,[5]; 8 hours,0.47 % area
same,Total Impurities,[5]; 24 hours,0.80 % area
same,Assay,[6]; [8],105.6 % label claim
same,Total Impurities,[6]; [8],0.17 % area
same,Assay,[6]; [9],105.6 % label claim
same,Total Impurities,[6]; [9],0.17 % area
same,Assay,[6]; [10],106.4 % label claim
same,Total Impurities,[6]; [10],0.21 % area
same,Assay,[6]; [11],107.0 % label claim
same,Total Impurities,[6]; [11],0.25 % area
same,Assay,[6]; [12],104.6 % label claim
same,Total Impurities,[6]; [12],0.33 % area
same,Assay,[6]; [13],102.3 % label claim
same,Total Impurities,[6]; [13],0.23 % area
same,Assay,[6]; [14],101.8 % label claim
same,Total Impurities,[6]; [14],0.97 % area
same,Assay,[6]; [15],102.2 % label claim
same,Total Impurities,[6]; [15],1.84 % area
same,Assay,[6]; [16],102.0 % label claim
same,Total Impurities,[6]; [16],3.35 % area
same,Assay,[6]; [17],94.8 % label claim
same,Total Impurities,[6]; [17],6.21 % area
same,Assay,[6]; [18],103.0 % label claim
same,Total Impurities,[6]; [18],0.28 % area
same,Assay,[6]; [19],100.0 % label claim
same,Total Impurities,[6]; [19],1.49 % area
same,Assay,[6]; [20],99.4 % label claim
same,Total Impurities,[6]; [20],2.19 % area
same,Assay,[6]; [21],98.8 % label claim
same,Total Impurities,[6]; [21],3.68 % area
same,Assay,[6]; [22],89.9 % label claim
same,Total Impurities,[6]; [22],8.90 % area
same,Effectiveness in mechanism-based assays,microtubules,more effective than paclitaxel
